PubChem BioAssay AID276 (DTP/NCI, 2004)
“And” between values parts separate entries of the source, which are not always exact repeats. Identical values can stand only once. Toxic doses and inconclusive results are not listed.

System: B6C3F1 mice, Lewis lung carcinoma iv, survival T/C
Test: NCI In Vivo Anticancer Drug Screen. Data for tumor model Lewis Lung Carcinoma (intravenous) in B6C3F1 mice
Details: endpoint: median survival time, schedule: Q01DX009 (ip), higher = longer survival
In short: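 Antitumor activity is assessed in tumor-bearing mice by comparing survival after compound treatment against vehicle-treated controls, reported as a T/C ratio.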

[1] = dose: 12.5 mg/kg/injection, vehicle: saline with Tween-80
[2] = dose: 25.0 mg/kg/injection, vehicle: saline with Tween-80
[3] = dose: 50.0 mg/kg/injection, vehicle: saline with Tween-80
[4] = dose: 100.0 mg/kg/injection, vehicle: saline with Tween-80
[5] = dose: 100.0 mg/kg/injection, vehicle: saline
[6] = dose: 200.0 mg/kg/injection, vehicle: saline
[7] = dose: 1.0 mg/kg/injection, vehicle: saline
[8] = dose: 2.0 mg/kg/injection, vehicle: saline
[9] = dose: 200.0 mg/kg/injection, vehicle: saline with Tween-80
[10] = dose: 12.5 mg/kg/injection, vehicle: Klucel (hydroxypropylcellulose) (HPC)
[11] = dose: 12.5 mg/kg/injection, vehicle: saline
[12] = dose: 25.0 mg/kg/injection, vehicle: saline
[13] = dose: 50.0 mg/kg/injection, vehicle: saline
[14] = dose: 6.25 mg/kg/injection, vehicle: Klucel (hydroxypropylcellulose) (HPC)

## O=[N+]([O-])c1ccc(N2CCOCC2)c2c1no[n+]2[O-]
dose: 6.25 mg/kg/injection, vehicle: saline with Tween-80
  T/C: 118 % of control
[1]
  T/C: 102 % of control
[2]
  T/C: 111 % of control
[3]
  T/C: 111 % of control
[4]
  T/C: 98 % of control

## CC[C@@]1(O)C(=O)OCc2c1cc1n(c2=O)Cc2cc3ccccc3nc2-1
dose: 0.37 mg/kg/injection, vehicle: saline with Tween-80
  T/C: 102 % of control
dose: 0.75 mg/kg/injection, vehicle: saline with Tween-80
  T/C: 105 % of control
dose: 1.5 mg/kg/injection, vehicle: saline with Tween-80
  T/C: 122 % of control

## COc1cc2oc(=O)ccc2cc1[C@@H]1OC(=O)C2(C)O[C@@H]12 (stereo partly specified)
dose: 0.16 mg/kg/injection, vehicle: water
  T/C: 106 % of control
dose: 0.31 mg/kg/injection, vehicle: water
  T/C: 94 % of control and 96 % of control
dose: 0.62 mg/kg/injection, vehicle: water
  T/C: 99 % of control and 112 % of control
dose: 1.25 mg/kg/injection, vehicle: water
  T/C: 91 % of control and 100 % of control
dose: 2.5 mg/kg/injection, vehicle: water
  T/C: 95 % of control and 100 % of control
dose: 5.0 mg/kg/injection, vehicle: water
  T/C: 97 % of control and 98 % of control
dose: 10.0 mg/kg/injection, vehicle: water
  T/C: 94 % of control

## COc1cc2c(c(OC)c1OC)-c1c(cc3c(c1OC)OCO3)CC(C)C(C)(O)C2OC(=O)c1ccccc1 (stereo unspecified)
dose: 6.25 mg/kg/injection, vehicle: saline + alcohol
  T/C: 93 % of control
dose: 12.5 mg/kg/injection, vehicle: saline + alcohol
  T/C: 96 % of control
dose: 25.0 mg/kg/injection, vehicle: saline + alcohol
  T/C: 107 % of control
dose: 50.0 mg/kg/injection, vehicle: saline + alcohol
  T/C: 102 % of control
dose: 100.0 mg/kg/injection, vehicle: saline + alcohol
  T/C: 106 % of control
dose: 200.0 mg/kg/injection, vehicle: saline + alcohol
  T/C: 103 % of control

## O=NN(CCCl)C(=O)NC1CCC(=O)NC1=O (stereo unspecified)
dose: 1.0 mg/kg/injection, vehicle: saline with Tween-80
  T/C: 113 % of control
dose: 4.0 mg/kg/injection, vehicle: saline with Tween-80
  T/C: 225 % of control
dose: 8.0 mg/kg/injection, vehicle: saline with Tween-80
  T/C: 312 % of control
dose: 16.0 mg/kg/injection, vehicle: saline with Tween-80
  T/C: 93 % of control

## CNC=O
[5]
  T/C: 106 % of control
[6]
  T/C: 110 % of control

## OC(C1CO1)C(O)C1CO1 (stereo unspecified)
dose: 0.25 mg/kg/injection, vehicle: saline
  T/C: 101 % of control
dose: 0.5 mg/kg/injection, vehicle: saline
  T/C: 100 % of control
[7]
  T/C: 102 % of control
[8]
  T/C: 109 % of control

## CCCCCCCC(=O)OCC(=O)[C@]1(O)Cc2c(O)c3c(c(O)c2[C@@H](OC2CC(N)C(O)C(C)O2)C1)C(=O)c1c(OC)cccc1C3=O (stereo partly specified)
[7]
  T/C: 102 % of control
dose: 1.0 mg/kg/injection, vehicle: suspension in saline
  T/C: 120 % of control
[8]
  T/C: 124 % of control
dose: 2.0 mg/kg/injection, vehicle: suspension in saline
  T/C: 112 % of control

## CC(/C=C/c1ccccc1)=Nc1ccccc1
[1]
  T/C: 109 % of control
[2]
  T/C: 101 % of control
[3]
  T/C: 97 % of control
[4]
  T/C: 99 % of control
[9]
  T/C: 105 % of control

## COc1cc2c(c(OC)c1OC)-c1ccc(OC)c(=O)cc1[C@@H](NC(=O)CCl)CC2
dose: 0.03 mg/kg/injection, vehicle: saline with Tween-80
  T/C: 114 % of control
dose: 0.06 mg/kg/injection, vehicle: saline with Tween-80
  T/C: 102 % of control
dose: 0.12 mg/kg/injection, vehicle: saline with Tween-80
  T/C: 114 % of control
dose: 0.25 mg/kg/injection, vehicle: saline with Tween-80
  T/C: 106 % of control

## O=[N+]([O-])c1ccc(-n2[nH]nnc2=S)cc1
[1]
  T/C: 101 % of control
[2]
  T/C: 96 % of control
[3]
  T/C: 103 % of control
[4]
  T/C: 95 % of control
[9]
  T/C: 94 % of control

## CC(Oc1ccccc1-c1ccccc1)C(=O)N(C)C (stereo unspecified)
[1]
  T/C: 106 % of control
[2]
  T/C: 110 % of control
[3]
  T/C: 107 % of control
[4]
  T/C: 96 % of control
[9]
  T/C: 101 % of control
dose: 400.0 mg/kg/injection, vehicle: saline with Tween-80
  T/C: 100 % of control

## NC(=S)N/N=C/c1ccc(OC(=O)COc2ccc(Cl)cc2)cn1
[1]
  T/C: 99 % of control and 100 % of control
[2]
  T/C: 92 % of control and 99 % of control
[3]
  T/C: 95 % of control and 101 % of control
[4]
  T/C: 92 % of control and 107 % of control
[9]
  T/C: 116 % of control

## COc1cc(C2c3cc4c(cc3C(O)C(CO)C2CO)OCO4)cc(OC)c1OC (stereo unspecified)
[10]
  T/C: 102 % of control
dose: 25.0 mg/kg/injection, vehicle: Klucel (hydroxypropylcellulose) (HPC)
  T/C: 104 % of control
dose: 50.0 mg/kg/injection, vehicle: Klucel (hydroxypropylcellulose) (HPC)
  T/C: 102 % of control
dose: 100.0 mg/kg/injection, vehicle: Klucel (hydroxypropylcellulose) (HPC)
  T/C: 113 % of control

## C1OC1C1CO1 (stereo unspecified)
dose: 1.25 mg/kg/injection, vehicle: suspension in saline
  T/C: 101 % of control
dose: 2.5 mg/kg/injection, vehicle: suspension in saline
  T/C: 112 % of control
dose: 5.0 mg/kg/injection, vehicle: suspension in saline
  T/C: 105 % of control
dose: 10.0 mg/kg/injection, vehicle: suspension in saline
  T/C: 99 % of control
dose: 20.0 mg/kg/injection, vehicle: suspension in saline
  T/C: 101 % of control
dose: 40.0 mg/kg/injection, vehicle: suspension in saline
  T/C: 108 % of control

## O=CC(S)CO (stereo unspecified)
[11]
  T/C: 105 % of control and 107 % of control
[12]
  T/C: 95 % of control and 107 % of control
[13]
  T/C: 101 % of control and 102 % of control
[5]
  T/C: 101 % of control and 112 % of control
[6]
  T/C: 96 % of control and 102 % of control

## C/C(=N\N=C(/[Se])N1CC2CCC(CC2)C1)c1ccccn1
dose: 1.5 mg/kg/injection, vehicle: Klucel (hydroxypropylcellulose) (HPC)
  T/C: 106 % of control
dose: 3.0 mg/kg/injection, vehicle: Klucel (hydroxypropylcellulose) (HPC)
  T/C: 103 % of control
[14]
  T/C: 110 % of control

## COc1cc2cc3cc4cc(OC)c(OC)cc4c(C)[n+]3cc2cc1OC (tested in a mixture with another compound)
[11]
  T/C: 112 % of control
[12]
  T/C: 106 % of control
[13]
  T/C: 117 % of control
[5]
  T/C: 120 % of control

## CC(C)[C@](O)(C(=O)OCC1=CCN2CC[C@@H](O)[C@@H]12)[C@H](C)O
dose: 25.0 mg/kg/injection, vehicle: water
  T/C: 100 % of control
dose: 50.0 mg/kg/injection, vehicle: water
  T/C: 97 % of control
dose: 100.0 mg/kg/injection, vehicle: water
  T/C: 100 % of control
dose: 200.0 mg/kg/injection, vehicle: water
  T/C: 109 % of control
dose: 400.0 mg/kg/injection, vehicle: water
  T/C: 102 % of control

## CCCCCC[Se][Se]CCCCCC
dose: 1.56 mg/kg/injection, vehicle: Klucel (hydroxypropylcellulose) (HPC)
  T/C: 97 % of control
dose: 3.12 mg/kg/injection, vehicle: Klucel (hydroxypropylcellulose) (HPC)
  T/C: 105 % of control
[14]
  T/C: 100 % of control
[10]
  T/C: 95 % of control

## c1csc(C[N+]23CN4CN(CN(C4)C2)C3)c1
dose: 12.0 mg/kg/injection, vehicle: saline
  T/C: 100 % of control
[12]
  T/C: 101 % of control
[13]
  T/C: 96 % of control
[5]
  T/C: 96 % of control
[6]
  T/C: 110 % of control
